# System: not listed separately
# Experiment: Tissue distribution test in mice
# Assay type: in vivo
# Settings: gavage 10 mg/kg
# Experimental: Mice were fasted for more than 12 h and had free access to water. Table 3 Experimental Scheme for tissue distribution of Compound C27 in mice
# Mice were fasted for more than 12 h and had free access to water.
# • (1) Tissue distribution test in mice: The animals in each group were anesthetized and killed 2 h after administration. The brain, pancreas, heart, liver, and kidney tissues were collected by dissection, washed with physiological saline, and stored in a -20 °C refrigerator for testing. At the same time, 0.3 mL of whole blood was collected and placed in an EDTA-K2 anticoagulant tube. The blood was separated by centrifugation at 11,000 rpm for 5 min and stored in a -20 °C refrigerator for testing.
# The concentration of unchanged drug in plasma and tissues was determined.
# (2) Tissue distribution test of compound C27 in mice: At corresponding time points (0.25, 2 and 8 h) after gavage administration, mice were bled to death through the abdominal aorta. Brain, heart, liver, lung, pancreas and kidney tissues were immediately collected by dissection, and part of the plasma was collected. The operation was carried out in an ice water bath.
# Centrifugation conditions: 11000 rpm for 5 min to separate plasma (about 200 µL).
row,SMILES,pancreatic distribution
1,NC(=O)c1ccc(Cc2noc([C@@H]3[C@H]4C[C@H]5c6[nH]c7ccccc7c6CCN5C[C@@H]4CC[C@@H]3O)n2)cc1 [Compound C27],pancreatic distribution characteristics comparable to those of compound C19

# Same assay, conditions: gavage 10 mg/kg, compared with yohimbine
row,SMILES,plasma exposure
1,NC(=O)c1ccc(Cc2noc([C@@H]3[C@H]4C[C@H]5c6[nH]c7ccccc7c6CCN5C[C@@H]4CC[C@@H]3O)n2)cc1 [Compound C27],equivalent to that of yohimbine

# Same assay, conditions: gavage 10 mg/kg, relative ratio of tissue distribution concentration to blood concentration
SMILES,brain tissue distribution compared with yohimbine,"brain tissue distribution, times lower than that of yohimbine"
NC(=O)c1ccc(Cc2noc([C@@H]3[C@H]4C[C@H]5c6[nH]c7ccccc7c6CCN5C[C@@H]4CC[C@@H]3O)n2)cc1 [Compound C27],lower brain tissue distribution than yohimbine,about two hundred and seventy times lower
O[C@H]1CC[C@H]2CN3CCc4c([nH]c5ccccc45)[C@@H]3C[C@@H]2[C@H]1c1nc(Cc2ccccc2)no1 [Compound C1],lower brain tissue distribution than yohimbine,–
O[C@H]1CC[C@H]2CN3CCc4c([nH]c5ccccc45)[C@@H]3C[C@@H]2[C@H]1c1nc(Cc2ccc(Cl)c(Cl)c2)no1 [Compound C13],lower brain tissue distribution than yohimbine,–
COc1ccc(Cc2noc([C@@H]3[C@H]4C[C@H]5c6[nH]c7ccccc7c6CCN5C[C@@H]4CC[C@@H]3O)n2)cc1 [Compound C6],lower brain tissue distribution than yohimbine,–

# Biological target: T1, α2A-AR (Homo sapiens, UniProt P08913)
# T1 construct: expressed in transfected cells; stably expressing α2A-AR/Gα16
# T1 sequence (P08913 1-465): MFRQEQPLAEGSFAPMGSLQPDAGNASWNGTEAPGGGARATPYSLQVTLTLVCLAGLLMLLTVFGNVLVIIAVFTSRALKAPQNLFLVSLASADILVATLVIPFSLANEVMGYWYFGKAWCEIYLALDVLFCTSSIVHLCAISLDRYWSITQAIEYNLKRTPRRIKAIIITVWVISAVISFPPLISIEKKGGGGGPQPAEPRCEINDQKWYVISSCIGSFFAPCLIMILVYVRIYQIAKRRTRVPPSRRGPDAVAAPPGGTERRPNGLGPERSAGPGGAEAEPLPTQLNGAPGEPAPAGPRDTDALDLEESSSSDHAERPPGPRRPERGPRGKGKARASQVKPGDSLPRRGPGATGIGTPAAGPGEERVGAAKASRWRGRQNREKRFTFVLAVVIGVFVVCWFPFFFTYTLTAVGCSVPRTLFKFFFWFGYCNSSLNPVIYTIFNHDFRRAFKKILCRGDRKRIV
# Experiment: α2A-AR antagonist assay (calcium flux, Fluo-4, FlexStation II)
# Assay type: cell-based
# Settings: antagonistic activity against agonist UK14304 in cells stably expressing α2A-AR/Ga16
# Source text: By establishing a cell line co-transfected with the target receptor and Ga16, the receptor can be activated to cause the activation of Gα16 protein, which in turn activates phospholipase C (PLC) to produce IP3 and DAG. IP3 can bind to the IP3 receptors on the endoplasmic reticulum and mitochondria in the cell, thereby causing the release of intracellular calcium. Therefore, measuring the changes in intracellular calcium can be used as a method to detect the activation state of the target receptor. Fluo-4/AM is a calcium fluorescent probe indicator used to measure calcium ions. As a non-polar lipid-soluble compound, after entering the cell, the AM group dissociates under the action of cell lipases and releases Fluo-4; since Fluo-4 is a polar molecule that is not easy to pass through the lipid bilayer membrane, it can keep in the cell for a long time. Finally, the level of Ga protein activation can be reflected by measuring the excited fluorescence intensity.
# Before the test, the test compound was dissolved in DMSO to prepare a stock solution, which was diluted with culture medium to the required concentration when used.
row,IC50 [µM],SMILES
1,0.3 to 0.5,O=C(O)c1ccc(Cc2noc([C@@H]3[C@H]4C[C@H]5c6[nH]c7ccccc7c6CCN5C[C@@H]4CC[C@@H]3O)n2)cc1 [Compound C30]
2,< 0.1,O[C@H]1CC[C@H]2CN3CCc4c([nH]c5ccccc45)[C@@H]3C[C@@H]2[C@H]1c1nc(Cc2ccccc2Br)no1 [Compound C14]
3,0.5 to 2,O[C@H]1CC[C@H]2CN3CCc4c([nH]c5ccccc45)[C@@H]3C[C@@H]2[C@H]1c1nc(-c2ccncc2)no1 [Compound C24]
4,0.5 to 2,COc1ccccc1Cc1noc([C@@H]2[C@H]3C[C@H]4c5[nH]c6ccccc6c5CCN4C[C@@H]3CC[C@@H]2O)n1 [Compound C4]
5,0.3 to 0.5,O[C@H]1CC[C@H]2CN3CCc4c([nH]c5ccccc45)[C@@H]3C[C@@H]2[C@H]1c1nc(-c2ccccc2)no1 [Compound C23]
6,0.5 to 2,O[C@H]1CC[C@H]2CN3CCc4c([nH]c5ccccc45)[C@@H]3C[C@@H]2[C@H]1c1nc(Cc2ccccc2Cl)no1 [Compound C10]
7,0.1 to 0.3,CN(C)c1cccc(Cc2noc([C@@H]3[C@H]4C[C@H]5c6[nH]c7ccccc7c6CCN5C[C@@H]4CC[C@@H]3O)n2)c1 [Compound C34]
8,0.1 to 0.3,COC(=O)c1ccc(Cc2noc([C@@H]3[C@H]4C[C@H]5c6[nH]c7ccccc7c6CCN5C[C@@H]4CC[C@@H]3O)n2)cc1 [Compound C29]
9,0.5 to 2,O[C@H]1CC[C@H]2CN3CCc4c([nH]c5ccccc45)[C@@H]3C[C@@H]2[C@H]1c1nc(CC2CC2)no1 [Compound C21]
10,< 0.1,O[C@H]1CC[C@H]2CN3CCc4c([nH]c5ccccc45)[C@@H]3C[C@@H]2[C@H]1c1nc(Cc2cccc(Br)c2)no1 [Compound C15]
11,0.1 to 0.3,CN(C)C(=O)c1ccc(Cc2noc([C@@H]3[C@H]4C[C@H]5c6[nH]c7ccccc7c6CCN5C[C@@H]4CC[C@@H]3O)n2)cc1 [Compound C35]
12,0.1 to 0.3,Cc1noc([C@@H]2[C@H]3C[C@H]4c5[nH]c6ccccc6c5CCN4C[C@@H]3CC[C@@H]2O)n1 [Compound C26]
13,0.3 to 0.5,O[C@H]1CC[C@H]2CN3CCc4c([nH]c5ccccc45)[C@@H]3C[C@@H]2[C@H]1c1nc(C2CCCCC2)no1 [Compound C25]
14,0.5 to 2,O[C@H]1CC[C@H]2CN3CCc4c([nH]c5ccccc45)[C@@H]3C[C@@H]2[C@H]1c1nc(Cc2ccc(F)cc2)no1 [Compound C9]
15,< 0.1,N#Cc1cccc(Cc2noc([C@@H]3[C@H]4C[C@H]5c6[nH]c7ccccc7c6CCN5C[C@@H]4CC[C@@H]3O)n2)c1 [Compound C18]
16,0.1 to 0.3,COCc1noc([C@@H]2[C@H]3C[C@H]4c5[nH]c6ccccc6c5CCN4C[C@@H]3CC[C@@H]2O)n1 [Compound C22]
17,0.1 to 0.3,O[C@H]1CC[C@H]2CN3CCc4c([nH]c5ccccc45)[C@@H]3C[C@@H]2[C@H]1c1nc(Cc2cccc(C(F)(F)F)c2)no1 [Compound C33]
18,< 0.1,CN(C)S(=O)(=O)c1ccc(Cc2noc([C@@H]3[C@H]4C[C@H]5c6[nH]c7ccccc7c6CCN5C[C@@H]4CC[C@@H]3O)n2)cc1 [Compound C28]
19,0.5 to 2,O[C@H]1CC[C@H]2CN3CCc4c([nH]c5ccccc45)[C@@H]3C[C@@H]2[C@H]1c1nc(Cc2cccc(Cl)c2)no1 [Compound C11]
20,0.3 to 0.5,O[C@H]1CC[C@H]2CN3CCc4c([nH]c5ccccc45)[C@@H]3C[C@@H]2[C@H]1c1nc(Cc2nc3ccccc3o2)no1 [Compound C31]
21,0.5 to 2,O[C@H]1CC[C@H]2CN3CCc4c([nH]c5ccccc45)[C@@H]3C[C@@H]2[C@H]1c1nc(Cc2ccccc2F)no1 [Compound C7]
22,0.1 to 0.3,COc1cccc(Cc2noc([C@@H]3[C@H]4C[C@H]5c6[nH]c7ccccc7c6CCN5C[C@@H]4CC[C@@H]3O)n2)c1 [Compound C5]
23,< 0.1,O[C@H]1CC[C@H]2CN3CCc4c([nH]c5ccccc45)[C@@H]3C[C@@H]2[C@H]1c1nc(Cc2cccc(OC(F)(F)F)c2)no1 [Compound C32]
24,0.1 to 0.3,O[C@H]1CC[C@H]2CN3CCc4c([nH]c5ccccc45)[C@@H]3C[C@@H]2[C@H]1c1nc(CN2CCOCC2)no1 [Compound C20]

row,SMILES,IC50 [µM]
1,O[C@H]1CC[C@H]2CN3CCc4c([nH]c5ccccc45)[C@@H]3C[C@@H]2[C@H]1c1nc(CCc2ccccc2)no1 [Compound C3],0.1 to 0.3
2,CC(c1ccccc1)c1noc([C@@H]2[C@H]3C[C@H]4c5[nH]c6ccccc6c5CCN4C[C@@H]3CC[C@@H]2O)n1 (some centres unmarked) [Compound C2],0.3 to 0.5
3,NC(=O)c1ccc(Cc2noc([C@@H]3[C@H]4C[C@H]5c6[nH]c7ccccc7c6CCN5C[C@@H]4CC[C@@H]3O)n2)cc1 [Compound C27],< 0.1
4,O[C@H]1CC[C@H]2CN3CCc4c([nH]c5ccccc45)[C@@H]3C[C@@H]2[C@H]1c1nc(Cc2ccc(Br)cc2)no1 [Compound C16],0.5 to 2
5,O[C@H]1CC[C@H]2CN3CCc4c([nH]c5ccccc45)[C@@H]3C[C@@H]2[C@H]1c1nc(Cc2ccccc2)no1 [Compound C1],< 0.1
6,O[C@H]1CC[C@H]2CN3CCc4c([nH]c5ccccc45)[C@@H]3C[C@@H]2[C@H]1c1nc(Cc2ccc(Cl)c(Cl)c2)no1 [Compound C13],0.5 to 2
7,COc1ccc(Cc2noc([C@@H]3[C@H]4C[C@H]5c6[nH]c7ccccc7c6CCN5C[C@@H]4CC[C@@H]3O)n2)cc1 [Compound C6],< 0.1
8,O[C@H]1CC[C@H]2CN3CCc4c([nH]c5ccccc45)[C@@H]3C[C@@H]2[C@H]1c1nc(Cc2c(Cl)cccc2Cl)no1 [Compound C12],0.1 to 0.3
9,O[C@H]1CC[C@H]2CN3CCc4c([nH]c5ccccc45)[C@@H]3C[C@@H]2[C@H]1c1nc(Cc2cccc(F)c2)no1 [Compound C8],0.3 to 0.5
10,N#Cc1ccccc1Cc1noc([C@@H]2[C@H]3C[C@H]4c5[nH]c6ccccc6c5CCN4C[C@@H]3CC[C@@H]2O)n1 [Compound C17],0.1 to 0.3

# From patent publication EP4624470A1, “YOHIMBINE DERIVATIVE, AND PREPARATION METHOD THEREFOR AND PHARMACEUTICAL COMPOSITION AND USE THEREOF” (Shanghai Institute of Materia Medica, Chinese Academy of …, priority 2022, dated 2024)
